US9526757B2, “Peptides that inhibit the interaction between ASF1 and histones, and use thereof” (COMMISSARIAT A L'ENERGIE ATOMIQUE ET AUX ENERGIES …, priority 2011, dated 2016)
Entries after “also recorded” stand apart in the source; their conditions may differ. Where two headings read alike, the source gives them in different places. Where no end group is shown, it is not given here.

What was measured:
[1] = molecular target: T1, Asf1 1-156 (Homo sapiens, UniProt Q9Y294); experiment: Calorimetry (ITC) of the interaction of peptides with Asf1 1-156; format: binding; conditions: for binding to Asf1 (in words): control peptide mutated on three key residues; for affinity for Asf1 compared with peptide i5: optimized sequences of i5
T1 construct: made in house
T1 sequence (Q9Y294 1-156): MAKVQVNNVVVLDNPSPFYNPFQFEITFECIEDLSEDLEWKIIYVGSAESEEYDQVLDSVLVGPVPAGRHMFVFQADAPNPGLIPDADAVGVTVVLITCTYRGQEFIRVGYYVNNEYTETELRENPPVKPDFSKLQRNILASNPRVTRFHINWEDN
Procedure: FIG. 1: ITC curves of the interaction Asf1 1-156 (30 μM in A, 10 μM in B and C) with peptide i1 (A), i4 (B) and i5 (C). The peptide concentration used for this experiment is 0.5 mM for i1, and 0.16 mM for i4 and i5.
Human Asf1a and b proteins and the conserved N-terminal domain (1-156) of each of the isoforms were cloned into the vector peTM30. The unlabeled and ^15N and ^13C/^15N labeled recombinant proteins were purified according to the protocol of Mousson et al. (2004, Journal of Biomolecular NMR, 29(3): 413-414). The peptides were either produced by chemical synthesis ([…]), or cloned after gene synthesis ([…]) in the vector Gateway pDest 17 (Invitrogen), then purified according to the protocol of Mousson et al. (2005, Proc. Natl. Sci. USA, 102(17): p. 5975-5980).
All calorimetry experiments were carried out in 50 mM Tris buffer pH 7.4 at 5° C., unless otherwise indicated. Peptides were introduced in the syringe at a concentration of […] and Asf1 was added to the cuvette at a concentration of 30 μM or 10 μM. Calorimetry tests were also conducted at 25° C. or in 50 mM Tris buffer, 150 mM NaCl, pH 7.4 to obtain more detailed information on the characteristics of the interactions studied.

[2] = tested on: U2OS cells; experiment: Cell penetration test of FITC-labelled peptides by flow cytometry; format: cell-based, human; conditions: FITC label, 1 μM, 1 hour, FIG. 5
Procedure: The capacity of the peptide i42V (SEQ ID NO: 47) coupled either to the sequence TAT (peptide TAT-i42V, SEQ ID NO: 58) or to the sequence (RRP)5 (peptide RRP5-i42V, SEQ ID NO 59) was measured using these peptides coupled to an FITC label. The mean fluorescence of the cells was analyzed by flow cytometry (FIG. 5).
U2OS cells were incubated with culture medium supplemented with fluorescent peptide at a final concentration of 1 μM for 1 hour, then washed with PBS buffer and detached by addition of trypsin, washed with PBS buffer, then analyzed by flow cytometry (FACS).

[3] = tested on: U2OS cells; experiment: Toxicity test on U2OS cells transduced with peptides in the presence of pyrene butyrate; format: cell-based, human; conditions: 24 hours after transduction
Procedure: To optimize the internalization of the peptide, the transduction was performed in the presence of pyrene butyrate, according to the method proposed by Takeuchi et al. (ACS CHEMICAL BIOLOGY, 2006. 1(5): p. 299-303). […] RRP5-i1 is the peptide of SEQ ID NO: 60. RRP5-i5 is the peptide of SEQ ID NO: 66. This correlation between the affinity of the peptide for Asf1 and the induced cell toxicity was confirmed for another cell type (HeLa cells) and by using another protocol to measure cell survival, the MTT assay (FIG. 10).
To test the phenotypes induced by the peptide, a newly developed protocol for the “Cell Penetrating TAT” was used. The peptides were dissolved in PBS buffer containing […] and incubated with U2OS (or HeLa) cells for 4 minutes. Cells were then washed three times with PBS buffer, then taken up in culture medium containing fetal calf serum. Cell death was analyzed by FACS 24 to 48 hours later by propidium iodide incorporation or by an MTT assay (3-(4,5-dimethylthiazol-2-yl)-2,5-diphenyl tetrazolium bromide). (Mosmann, T. J. Immunol. Methods 65: 55-63, 1983).

[4] = molecular target: T2, Asf1-H3-H4 interaction (Homo sapiens, UniProt Q9Y294); experiment: Competition assay on GST column (peptide/histone competition in vitro, Western blot); format: binding; conditions: peptide 0.1 mM and 1 mM, FIG. 3
T2 construct: The human protein GST-Asf1 1-156 was produced; made in house
T2 sequence (Q9Y294 1-156): as above
Procedure: To do this, GST beads linked to Asf1 were incubated with an excess of histones H3-H4, then washed and incubated with increasing concentrations of peptide. The eluted histones were analyzed by Western blot.
The human protein GST-Asf1 1-156 was produced and then incubated with GST beads (glutathione S transferase, Sigma). For each experiment, 40 μg of recombinant Asf1 fixed to agarose beads were incubated with 400 μg of histones. After washing with 50 mM Tris buffer, pH 8, 150 mM NaCl, 1 mM EDTA, 1 mM DTT, 0.5% NP40, the beads were incubated with different concentrations of peptide (0 to 1 mM) dissolved in the same buffer.

[5] = ITC, 50 mM Tris buffer pH 7.4 at 5° C., Asf1 1-156, read-out: Kd

Kd [1, 5] [nM] | Substance | further results
350 | GAMGTLTPKEAELARRIRGAGASRTLNGFG [SEQ ID NO: 43] | 
30 | GAMGLTAAEHAKRSTLTPKEAQLARRIRGAGGVTLNGFG [SEQ ID NO: 52] | 
60 | GAMGRVPPAVRKLGNASTERKWAELARRIRGAGGVTLNGFG [SEQ ID NO: 65] | 
30 | GAMGTRTPKERRLARRIRGAGGRTLNGFG [SEQ ID NO: 56] | 

Further lines, the substance ahead of its results:

Substance | Kd [1, 5] [nM] | further results
GAMGTITPKEAQLARRIRGAGGVTLNGFG [SEQ ID NO: 47] | 350 | 
RRPRRPRRPRRPRRPGAMGTITPKEAQLARRIRGAGGVTLNGFG [SEQ ID NO: 59] |  | penetration into cells (mean fluorescence) [2]: penetrate more effectively than the penetration sequences alone
RRP5-i5mut: mutated version of RRP5-i5 carrying the (RRP)5 sequence, does not bind to Asf1; negative control (RRPRRPRRPRRPRRPASTERKWAEAARRARGAGGVTLNGAGGCA) |  | binding to Asf1 (in words) [1]: does not bind to Asf1; toxicity (in words) [3]: no toxicity was seen
GAMGTLTPKEAELARRIRGAGGRTLNGFG [SEQ ID NO: 42] | 180 | 
GAMGTIMPKDIQLARRIRGAGASRTLYGFG [SEQ ID NO: 39] | 350 | 
GRKKRRQRRRGAMGTITPKEAQLARRIRGAGGVTLNGFG [SEQ ID NO: 58] |  | penetration into cells (mean fluorescence) [2]: penetrate more effectively than the penetration sequences alone
ASTERKWAELARRIAGAGGVTLNGFG [SEQ ID NO: 79] |  | affinity for Asf1 compared with peptide i5 [1]: at least as good as that of peptide i5
RRPRRPRRPRRPRRPGAMGTITPKEAQLARRIRGAGGVTLNGFGCA [SEQ ID NO: 50] | 420 | 
GAMGTITPKEEQLRRRIEGAGASVTLNGFG [SEQ ID NO: 46] | 420 | 
ASTERKWAELARRIRGAGGRTLNGFG [SEQ ID NO: 77] |  | affinity for Asf1 compared with peptide i5 [1]: at least as good as that of peptide i5
GAMGTIMPKDIQLARRIRG [SEQ ID NO: 70] |  | Kd ([1]; unit inferred, read-out: affinity for Asf1): 8000 nM
i5mut: control peptide, 90% identity with peptide i5, mutated to alanine on three key residues, no longer binds to Asf1 (ASTERKWAEAARRARGAGGVTLNGAG) [reference compound] |  | histones bound to or detached from GST-Asf1 beads [4]: the histones remain bound to Asf1; binding to Asf1 (in words) [1]: no longer binds to Asf1; also recorded: does not bind to Asf1
GAMGTLTPKEAELARRIRGAGGVTLNGFG [SEQ ID NO: 48] | 60 | 
